We go through 16 molecules from ChEMBL document CHEMBL3870364, “Discovery of Spirocyclic Aldosterone Synthase Inhibitors as Potential Treatments for Resistant Hypertension” (ACS Med Chem Lett, 2017).

The nature of data set [1]: Lipophilicity, logD of compound by HPLC analysis. Type of data set: physicochemical.
Data set [2] addresses T1, Cytochrome P450 11B2, mitochondrial (Homo sapiens, UniProt P19099).
T1 sequence (P19099 whole entry): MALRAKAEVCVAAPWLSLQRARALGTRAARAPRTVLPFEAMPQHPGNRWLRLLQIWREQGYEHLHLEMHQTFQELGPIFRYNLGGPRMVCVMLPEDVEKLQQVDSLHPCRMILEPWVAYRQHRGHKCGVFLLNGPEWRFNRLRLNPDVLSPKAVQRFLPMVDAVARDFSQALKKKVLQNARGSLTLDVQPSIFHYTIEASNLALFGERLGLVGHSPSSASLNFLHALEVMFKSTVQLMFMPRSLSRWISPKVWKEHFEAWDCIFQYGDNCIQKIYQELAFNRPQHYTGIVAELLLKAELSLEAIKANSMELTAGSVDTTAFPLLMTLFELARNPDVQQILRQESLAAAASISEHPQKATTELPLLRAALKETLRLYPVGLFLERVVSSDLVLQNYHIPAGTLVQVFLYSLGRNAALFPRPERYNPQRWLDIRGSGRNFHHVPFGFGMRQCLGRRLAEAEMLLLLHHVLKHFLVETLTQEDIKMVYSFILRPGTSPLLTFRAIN
Nature of the data set: Inhibition of human CYP11B2-CLE9 expressed in chinese hamster V79 cells using 11-deoxycorticosterone as substrate preincubated for 1 hr followed by substrate addition measured for 3 hrs by HTRF assay. The data set is classed as cell-based. A general note: TR-FRET usually uses a lanthanide donor and a delayed reading to cut background.

The target of data set [3] is T2, Cytochrome P450 11B1, mitochondrial (Homo sapiens, UniProt P15538).
T2 sequence (P15538 whole entry): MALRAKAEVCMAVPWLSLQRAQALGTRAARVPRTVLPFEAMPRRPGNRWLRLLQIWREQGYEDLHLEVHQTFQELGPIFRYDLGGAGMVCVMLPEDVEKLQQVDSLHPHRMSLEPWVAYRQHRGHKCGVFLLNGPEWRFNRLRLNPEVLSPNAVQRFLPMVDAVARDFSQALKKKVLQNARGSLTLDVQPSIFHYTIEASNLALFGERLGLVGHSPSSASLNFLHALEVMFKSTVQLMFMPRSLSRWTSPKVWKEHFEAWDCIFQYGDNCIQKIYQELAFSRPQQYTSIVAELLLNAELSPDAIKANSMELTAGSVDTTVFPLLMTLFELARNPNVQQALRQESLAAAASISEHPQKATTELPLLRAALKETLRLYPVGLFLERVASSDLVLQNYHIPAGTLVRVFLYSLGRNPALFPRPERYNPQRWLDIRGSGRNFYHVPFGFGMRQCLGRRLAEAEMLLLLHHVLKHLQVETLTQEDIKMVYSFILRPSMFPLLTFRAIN
In words: Inhibition of human CYP11B1-8C7 expressed in chinese hamster V79 cells using 11-deoxycortisol as substrate preincubated for 1 hr followed by substrate addition measured for 3 hrs by HTRF assay. The data set is classed as ADME, cell-based.

Another data set concerns CYP11B1 / CYP11B2. Nature of the data set: Selectivity ratio of IC50 for human CYP11B1-8C7 expressed in chinese hamster V79 cells to IC50 for human CYP11B2-CLE9 expressed in chinese hamster V79 cells. The note with it: read-out: Ratio IC50. The data set is classed as ADME, cell-based.
Data set [4] can be described thus: Solubility of the compound in PBS buffer at pH 2. Type of data set: physicochemical.
A short description of data set [5]: Solubility of the compound in PBS buffer at pH 7. The data set is classed as physicochemical.
The nature of data set [6]: Intrinsic clearance in Sprague-Dawley rat liver microsomes at 0.3 mM preincubated for 10 mins followed by NADPH addition measured up to 45 mins by LC/MS analysis. The data set is classed as ADME. The note with it: read-out: CLH. In general terms: Liver microsomes are a subcellular fraction often used to study metabolism.
The nature of data set [7]: Ratio of IC50 for human CYP17 expressed in African green monkey COS7 cells to IC50 for human CYP11B2-CLE9 expressed in chinese hamster V79 cells. More on the design: species or system COS-7.
A short description of data set [8]: Ratio of IC50 for CYP19A1 (unknown origin) to IC50 for human CYP11B2-CLE9 expressed in chinese hamster V79 cells.
Data set [9] is described as follows: Ratio of IC50 for CYP21 (unknown origin) to IC50 for human CYP11B2-CLE9 expressed in chinese hamster V79 cells.
Data set [10] can be described thus: Oral bioavailability in Sprague-Dawley rat at 2 mg/kg administered via gavage by LC-MS/MS analysis. Type of data set: ADME, organism-based. The note with it: in vivo.
Data set [11] in a line: Dose normalized AUC in Sprague-Dawley rat at 2 mg/kg administered via oral gavage by LC-MS/MS analysis. The conditions noted are these: in vivo. Type of data set: ADME, organism-based.
Data set [12] in a line: Clearance in Sprague-Dawley rat plasma at 1 mg/kg, iv or 2 mg/kg administered via oral gavage by LC-MS/MS analysis. Type of data set: ADME, organism-based.
A short description of data set [13]: Half life in Sprague-Dawley rat plasma at 1 mg/kg, iv or 2 mg/kg administered via oral gavage by LC-MS/MS analysis. Type of data set: ADME, organism-based.
Data set [14] is described as follows: Oral bioavailability in Sprague-Dawley rat at 1 mg/kg administered via gavage by LC-MS/MS analysis. Type of data set: ADME, organism-based. The note with it: in vivo.
Data set [15] can be described thus: Dose normalized AUC in Sprague-Dawley rat at 1 mg/kg administered via oral gavage by LC-MS/MS analysis. The conditions noted are these: in vivo. The data set is classed as ADME, organism-based.
Data set [16] in a line: Clearance in Sprague-Dawley rat plasma at 0.5 mg/kg, iv or 1 mg/kg administered via oral gavage by LC-MS/MS analysis. Type of data set: ADME, organism-based.
Data set [17] is described as follows: Half life in Sprague-Dawley rat plasma at 0.5 mg/kg, iv or 1 mg/kg administered via oral gavage by LC-MS/MS analysis. Type of data set: ADME, organism-based.

In brackets after ≈: the same amount, converted by molar mass.

For `c1ccc2c(N3CCC4(CCOC4)CC3)cncc2c1`, in [1], the logD worked out at 2.6. In addition, the half-maximal inhibitory concentration (IC50) was found to be 13 nM in [2] and 387 nM in data set [3]. The selectivity ratio with CYP11B1 / CYP11B2 was 24. For the same molecule, the solubility stood at 196 µM (≈ 52.6 µg/mL) in data set [4] and 165 µM (≈ 44.3 µg/mL) in [5]. For the same molecule, the CLint scaled at 300 µM in data set [6] is < 20 mL/min/kg.

For the molecule `CC1(C)CN(c2cncc(N3CCC4(CCC(=O)N4)CC3)n2)C1`, the 50% inhibitory concentration (IC50) is 73 nM in [2] and 2190 nM in [3]. Also, the selectivity ratio with CYP11B1 / CYP11B2 stood at 30.

Turning to `c1ccc2c(N3CCC4(CC3)COC4)cncc2c1`, the IC50 was 42 nM in [2] and 1590 nM in data set [3]. Moreover, the selectivity ratio in the data set with CYP11B1 / CYP11B2 was 37.

In the case of `c1ccc2c(N3CCC4(CCNC4)CC3)cncc2c1`, the IC50 in data set [2] was > 10000 nM; in data set [3], 1310 nM. For the same molecule, the selectivity ratio with CYP11B1 / CYP11B2 is < 1.

Regarding `CN1CC2(CCN(c3cncc([C@@](C)(O)C(F)(F)F)c3)CC2)CC1=O`, the IC50 was 448 nM in data set [2] and 10000 nM in [3]. In addition, the selectivity ratio in the data set with CYP11B1 / CYP11B2 is > 22.

Molecule `c1ccc2c(N3CCC4(CCCC4)CC3)cncc2c1` yielded a logD in data set [1] of 5.6. Further, the 50% inhibitory concentration (IC50) in [2] was 106 nM; in data set [3] it was 1670 nM. Moreover, the selectivity ratio in the data set with CYP11B1 / CYP11B2 turned out to be 16. The solubility in data set [4] came out at 176 µM (≈ 46.9 µg/mL); in [5], 3 µM (≈ 0.799 µg/mL). Moreover, the CLint scaled at 300 µM in data set [6] is 1290 mL/min/kg.

For the molecule `c1ccc2c(N3CCC4(CCCO4)CC3)cncc2c1`, the half-inhibitory concentration (IC50) stood at 704 nM in [2] and 787 nM in data set [3]. In the data set on CYP11B1 / CYP11B2, the selectivity ratio stood at 1.

As to `CN1CC2(CCN(c3cncc4ccccc34)CC2)CC1=O`, the logD in data set [1] came to 1.6. In addition, the half-maximal inhibitory concentration (IC50) in data set [2] was 228 nM; in data set [3] it was 2000 nM. Moreover, the selectivity ratio with CYP11B1 / CYP11B2 worked out at 9. Further, the solubility in [4] stood at 149 µM (≈ 44 µg/mL); in data set [5], 167 µM (≈ 49.3 µg/mL). Further, the CLint scaled at 300 µM in data set [6] came to 76 mL/min/kg.

Consider `c1ccc2c(N3CCC4(CCCCC4)CC3)cncc2c1`, for which the IC50 in data set [2] is 554 nM; in [3] it was 1570 nM. The selectivity ratio in the data set on CYP11B1 / CYP11B2 is 3.

Regarding `CC(C)(C)OC(=O)N1CCC2(CCN(c3cncc4ccccc34)CC2)C1`, the concentration for half-maximal inhibition (IC50) is 1130 nM in data set [2] and > 8000 nM in data set [3]. Besides, the selectivity ratio in the data set with CYP11B1 / CYP11B2 is > 7.

On to `CC1(C)CN(c2cncc(N3CCC4(CC3)CNC(=O)C4)n2)C1`, for which the results for the concentration for half-maximal inhibition (IC50) in [2] and in data set [3] were 34 nM and 1740 nM, respectively. Further, the selectivity ratio with CYP11B1 / CYP11B2 was determined as 51.

Regarding `CN1CC2(CCN(c3cncc([C@](C)(O)C(F)(F)F)c3)CC2)CC1=O`, the IC50 was 32 nM in [2] and 1540 nM in [3]. Besides, the selectivity ratio in the data set with CYP11B1 / CYP11B2 is 49. In addition, the “Ratio IC50” value in data set [7], in data set [8] and in data set [9] was >200 each time. For the same molecule, the CLint scaled at 300 µM in data set [6] was < 20 mL/min/kg. Besides, the bioavailability in [10] came to 91%. The same molecule showed an AUC/dose in data set [11] of 2.15 µM·kg·h/mg. In addition, the clearance in data set [12] came out at 24 mL/min/kg. Moreover, the half-life in data set [13] is 72 min.

Regarding `CN1CCC2(CCN(c3cncc4ccccc34)CC2)C1=O`, the half-inhibitory concentration (IC50) in data set [2] and in [3] was > 8000 nM throughout.

Turning to `C[C@](O)(c1cncc(N2CCC3(CCOC3)CC2)c1)C(F)(F)F`, the half-inhibitory concentration (IC50) in data set [2] stood at 13 nM; in data set [3] it was 355 nM. The selectivity ratio with CYP11B1 / CYP11B2 came to 28. Besides, the CLint scaled at 300 µM in data set [6] is < 20 mL/min/kg. The molecule further came in with a bioavailability in data set [14] of 100%. This molecule yielded an AUC/dose in data set [15] of 0.85 µM·kg·h/mg. The molecule further yielded a clearance in data set [16] of 36 mL/min/kg. The same molecule showed a half-life in data set [17] of 30 min.

On to `CC(=O)N1CCC2(CCN(c3cncc4ccccc34)CC2)C1`, for which the IC50 in [2] was 1030 nM; in [3] it was 1000 nM. In the data set on CYP11B1 / CYP11B2, the selectivity ratio amounted to 1.

For the molecule `CN1CC2(CCN(c3cncc(N4CC(C)(C)C4)n3)CC2)CC1=O`, the IC50 worked out at 94 nM in data set [2] and 4460 nM in data set [3]. The selectivity ratio with CYP11B1 / CYP11B2 came to 47.

A word on the logD: it is the decadic logarithm of the distribution of all forms, ionised or not, between an organic phase and buffer at a given pH. As usually defined, the IC50 is the midpoint of a concentration-inhibition curve. Usually solubility stands for the concentration that dissolves in the medium under given conditions. Broadly, the bioavailability is the share of a dose that reaches the circulation, judged against a reference dose that is usually intravenous. As a reminder, the half-life is the time in which the quantity being followed falls by half.
